Key:
[1] = system: cerebellar slices explants; assay: Ex vivo cerebellar organotypic explant culture, differentiation and myelination index; format: cell-based, mice; settings: 750 nM, three days (7-10 DIV)
Experimental: We prepared cerebellar organotypic cultures from newborn (P0) mice. Cerebellar parasagittal slices (350 μm thick) were cut on a McIlwain tissue chopper and transferred onto 30 mm diameter Millipore culture inserts with […] (Millicell, Millipore). Slices were maintained in incubators at 37° C., under a humidified atmosphere containing 5% CO2 in six-well-plates containing 1 mL of slice culture media. This medium includes basal medium eagle (Invitrogen), 25% complete HBSS, 27 mM D-glucose, 100 U/mL penicillin/streptomycin, 1 mM glutamine (Sigma) and 5% horse serum (New Zealand origin, heat inactivated; Invitrogen). Medium was renewed every 2 days until 7 DIV, reaching the appropriate culture periods to study OPC differentiation and myelination. […] Slices were collected and fixed for 1 h at RT in PBS-4% paraformaldehyde, washed 3 times in PBS, and incubated 20 min at 4° C. in Clark's solution (95% ethanol/5% acetic acid), then washed 3 times in PBS 1×.
For ex-vivo cerebellar slices, slices were incubated 20 min at 4° C. in Clark's solution (95% ethanol/5% acetic acid), then washed 3 times in PBS 1×. Then, sections were incubated for 1 hour in a blocking buffer (0.2% Triton X-100/4% bovine serum albumin/4% donkey serum/PBS). Slices were incubated for 2 hours with the following primary antibodies at RT: Goat anti-Sox10 (1:100, R&D Systems); Rabbit anti-Calbindin (1:1000; Swant); Rat anti-MBP (1:200; Abcam); Mouse anti-CC1 (IgG2b; 1:100, Calbiochem). Then slices were washed 3 times in PBS/0.1% Triton X-100 and incubated in blocking buffer (dark, RT) for 2 hours with appropriate secondary antibodies conjugated with Alexa Fluor 488, 594 and 647 (1:1000; Molecular Probes or Thermo Fisher) and Dapi (1:5000 from working solution at 5 mg/ml; Life Technologies; D1306). Finally, slices were washed 3 times in PBS/0.1% Triton X-100 after incubation and mounted in Fluoromount-G (SouthernBiotech).
Then, we firstly performed a simpler and faster experimental model using cerebellar slices explants to identify the best drugs having pro-oligodendrogenenic and pro-myelinating activities in this ex vivo model, to be used in the in vivo analyses. Indeed, this model allowed us to better assess later aspects of OL maturation, myelination, and cytotoxicity in a richer cellular system, also containing immune cells (microglia/macrophages) that are known to influence oligodendrogenesis and (re) myelination. In this model, the start of myelination takes place after 7 days in culture (FIG. 3A). […] We then analyzed the effect in terms of OL numbers (CC1+/Sox10+ cells) and myelination (MBP labeling on CaBP+ Purkinje cell axons), by immunodetection of all four markers in the same sections. We calculated the differentiation index as the ratio of Sox10+ cells being CC1+, and the myelination index as the ratio CaBP+ axons being MBP+. […] On the one hand, we used the adult focal de/remyelination induced by intracerebral injection of […] (LPC) mimicking de/remyelination of MS, and on the other hand, the neonatal chronic hypoxia model, mimicking PTB hypomyelination.

[2] = system: primary OPCs purified by magnetic cell sorting (MACS) from neonatal cortices; assay: Primary OPC cultures purified by MACS, morphological complexity of OLs; format: cell-based, mice; settings: OPCs treated for two days; compared to vehicle; FIG. 2B
Experimental: Brains were collected from PLPGFP and P4 Swiss mice […] and washed 3 times in PBS 1× (Invitrogen) with 1% of penicillin/streptomycin (Sigma). Cortex and corpus callosum were dissected and dissociated using neural tissue dissociation kit (T) (Miltenyi biotec) and with dissociator (gentleMACS Octo Dissociator, Miltenyi Biotec). OPC magnetic cell sorting was performed using anti-PDGFRα-coupled-beads (CD140a-PDGFRα MicroBead Kit, Miltenyi biotec) and MultiMACS Cell24 Separator Plus (Miltenyi biotec). Cells were collected in PBS and amplified for 2 days in a proliferating medium (with growth factors IGF, EGF, FGF, and PDGFα). Then, 40.000 cells were plated in 24 well plates adherent on coverslips, beforehand coated with poly-ornithine (Merck) diluted in 4 volumes of H2O and washed 3 times. Successively, for 2 days of proliferation and differentiation, medium was added with drugs at 250 nM, 500 nM and 750 nM, and their respective vehicles (DMSO, PBS). Cells were fixed in 4% PBS-paraformaldehyde (thermo fisher) for 10 minutes and washed 3 times in PBS-1×.
For coated-coverslip, blocking was performed in a moist chamber for 30 mn at room temperature (RT) in the blocking buffer (0.05% Triton X-100/10% normal goat serum/PBS). Then, coverslip were incubated for 30 mn with the following primary antibodies at RT. Rat anti-PDGFRα (1:250, BD Biosciences); Mouse anti-CNPase (mlgG1, 1:250; Millipore); Rabbit anti-Btub (1:1000; BABCO); Chicken anti-GFAP (1:500, Avelabs), Mouse anti-MBP (mlgG1, 1:150; Abcam); Rabbit anti-Sox10 (1:1000; Proteintech). Following 3 washing in 0.05% Triton X-100/PBS, coverslips were incubated 30 min at RT in dark with appropriate secondary antibodies conjugated with Alexa Fluor 488, 594 and 647 (1:1000; Molecular Probes or Thermo Fisher) and Dapi (1:5000 from working solution at 5 mg/ml; Life Technologies; D1306). Coverslips were washed 3 times in 0.05% Triton X-100/PBS and mounted with Fluoromount-G (SouthernBiotech).
To evaluate cell specific contribution of the drugs directly in OL differentiation and maturation, we used primary OPCs purified by magnetic cell sorting (MACS) from neonatal cortices (P4).

How did the “differentiation index (CC1+/Sox10+ OLs number)” value ([1]; compared to negative controls, FIG. 3B) turn out when `CCCCOc1ccc(C(=O)CCN2CCCCC2)cc1.Cl` [Sm5, Dyclonine hydrochloride] was run?
Its value is “increased differentiation index”.

What about the “myelination process (MBP+/CaBP+), myelination index” value ([1]; compared to vehicle, FIG. 3C) of the same compound?
The value was “robust increase”.

And the “morphological complexity of OLs (PLP+ cells)” value [2]?
The value was “strongly increased”.

Source: patent US20250195523A1, “ORGANIC MOLECULES FOR TREATING MYELIN PATHOLOGIES” (ICM (INSTITUT DU CERVEAU ET DE LA MOELLE ÉPINIÈRE), priority 2022, published 2025)
